The results in this text go back to US11447505B1, “Pyrrolo[2,3-b]pyridine compounds and their use in the treatment of cancer” (priority 2017, dated 2022).

Test [1] addresses T1, ROCK1 (Homo sapiens (Human), UniProt Q13464). Nature of the test: biochemical.
The target of a further test is MRCKα (Homo sapiens (Human), UniProt Q5VT25). Nature of the test: MRCKα kinase assay (IMAP fluorescence polarization). It counts as biochemical. The source says: (§1) MRCKα, MRCKβ, ROCK1 and ROCK2 Kinase Assays
MRCKα, sequence (Q5VT25 whole entry): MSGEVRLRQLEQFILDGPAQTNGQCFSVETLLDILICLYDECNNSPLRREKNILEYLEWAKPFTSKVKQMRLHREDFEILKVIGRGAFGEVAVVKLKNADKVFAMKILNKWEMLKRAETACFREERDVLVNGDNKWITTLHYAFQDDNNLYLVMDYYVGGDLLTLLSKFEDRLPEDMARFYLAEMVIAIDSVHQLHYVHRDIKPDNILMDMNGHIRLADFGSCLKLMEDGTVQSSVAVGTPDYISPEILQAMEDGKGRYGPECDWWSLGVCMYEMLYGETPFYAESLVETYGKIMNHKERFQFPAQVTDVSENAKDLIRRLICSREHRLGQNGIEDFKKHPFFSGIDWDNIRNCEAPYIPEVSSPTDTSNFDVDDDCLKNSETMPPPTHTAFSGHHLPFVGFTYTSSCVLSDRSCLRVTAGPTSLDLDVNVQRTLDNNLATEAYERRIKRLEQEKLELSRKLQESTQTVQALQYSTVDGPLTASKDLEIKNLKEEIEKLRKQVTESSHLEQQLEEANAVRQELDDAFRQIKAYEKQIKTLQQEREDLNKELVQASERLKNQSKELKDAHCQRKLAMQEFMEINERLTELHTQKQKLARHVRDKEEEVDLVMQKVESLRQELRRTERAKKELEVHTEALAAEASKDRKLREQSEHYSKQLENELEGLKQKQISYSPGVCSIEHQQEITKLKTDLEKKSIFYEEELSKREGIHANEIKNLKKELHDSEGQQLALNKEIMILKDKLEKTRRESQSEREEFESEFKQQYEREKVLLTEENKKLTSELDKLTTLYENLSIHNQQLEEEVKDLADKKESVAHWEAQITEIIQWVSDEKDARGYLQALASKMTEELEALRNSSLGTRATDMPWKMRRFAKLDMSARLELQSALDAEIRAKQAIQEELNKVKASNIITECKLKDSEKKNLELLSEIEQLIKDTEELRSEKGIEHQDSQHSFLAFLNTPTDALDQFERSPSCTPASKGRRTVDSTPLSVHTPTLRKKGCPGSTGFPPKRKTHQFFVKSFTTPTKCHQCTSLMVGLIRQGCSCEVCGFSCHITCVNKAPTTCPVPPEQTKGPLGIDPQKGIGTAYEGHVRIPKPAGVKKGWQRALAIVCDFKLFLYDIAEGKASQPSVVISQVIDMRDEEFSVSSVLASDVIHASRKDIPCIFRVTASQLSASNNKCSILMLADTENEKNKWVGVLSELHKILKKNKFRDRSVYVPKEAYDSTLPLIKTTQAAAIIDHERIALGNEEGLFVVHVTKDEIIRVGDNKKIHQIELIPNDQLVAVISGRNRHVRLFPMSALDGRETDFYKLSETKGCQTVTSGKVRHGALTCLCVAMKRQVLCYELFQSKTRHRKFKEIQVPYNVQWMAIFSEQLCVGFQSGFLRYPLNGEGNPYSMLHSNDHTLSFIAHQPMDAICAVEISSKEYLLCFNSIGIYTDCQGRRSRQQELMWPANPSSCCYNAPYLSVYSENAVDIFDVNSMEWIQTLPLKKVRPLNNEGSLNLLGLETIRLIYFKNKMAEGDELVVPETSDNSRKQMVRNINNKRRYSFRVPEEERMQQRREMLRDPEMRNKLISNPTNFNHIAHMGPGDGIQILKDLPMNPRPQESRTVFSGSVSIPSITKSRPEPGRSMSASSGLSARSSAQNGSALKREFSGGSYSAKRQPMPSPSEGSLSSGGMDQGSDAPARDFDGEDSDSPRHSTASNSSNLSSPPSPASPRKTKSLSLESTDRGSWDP
(In fluorescence polarisation assays a small probe gives low polarisation when free and higher when bound to something large.)

Test [2] addresses T2, MRCKβ (Homo sapiens (Human), UniProt Q9Y5S2). Briefly: MRCKβ cellular assay (pMLC T18/S19 immunoblot, MDA-MB-231 cells with doxycycline inducible kinase domain). It counts as cell-based. On the procedure: (§2) MRCKβ, ROCK1 and ROCK2 Cellular Assays
(§3) MDA-MB-231 cells expressing doxycycline inducible ROCK1, ROCK2 or MRCKβ kinase domains were plated at 1.1×10^5 cells per well of a 12 well plate. After 24 hours, cells were treated with 1 μg/ml doxycycline for 18 hours to induce kinase domain expression and then tested over a suitable concentration range with compounds of the invention for 60 minutes. Cells were then washed with PBS and lysed with Tris-SDS lysis Buffer (50 mM Tris-HCl pH7.4, 0.5% (v/v) SDS, 1×PhosStop Inhibitors (04 906 837 001; Roche) and 1×Complete Protease Inhibitors (04 693 124 001; Roche)). Whole cell lysates were clarified by passing through QIAshredder spin columns, separated by SDS-PAGE, and quantitative immunoblotting performed using a LI-COR Odyssey IR scanner to determine pMLC (T18/S19) and α-Tubulin levels.

Test [3] concerns the target T1, ROCK1. Briefly: ROCK1 cellular assay (pMLC T18/S19 immunoblot, MDA-MB-231 cells with doxycycline inducible kinase domain). It counts as cell-based. On the procedure: as §2, §3
Background: Immunoblotting shows a protein as a band on a membrane.

Another test addresses ROCK2 (Homo sapiens (Human), UniProt O75116). Briefly: ROCK2 kinase assay (IMAP fluorescence polarization). It counts as biochemical.
Test [4] addresses T2, MRCKβ. Briefly: MRCKβ kinase assay (IMAP fluorescence polarization). In kind it is biochemical.
Description: as §1

Test [5] addresses kinase targets listed in tables 3 and 4 (Homo sapiens, UniProt Q13464). Nature of the test: biochemical.
Test [6] deals with kinase targets listed in tables 3 and 4 (Homo sapiens, UniProt Q9Y5S2). Briefly: biochemical.
The target in test [7] is kinase targets listed in tables 3 and 4 (Homo sapiens, UniProt Q9BXA7). Nature of the test: biochemical.
kinase targets listed in tables 3 and 4 (Homo sapiens, UniProt Q9BXA7), sequence (Q9BXA7 whole entry, looked up): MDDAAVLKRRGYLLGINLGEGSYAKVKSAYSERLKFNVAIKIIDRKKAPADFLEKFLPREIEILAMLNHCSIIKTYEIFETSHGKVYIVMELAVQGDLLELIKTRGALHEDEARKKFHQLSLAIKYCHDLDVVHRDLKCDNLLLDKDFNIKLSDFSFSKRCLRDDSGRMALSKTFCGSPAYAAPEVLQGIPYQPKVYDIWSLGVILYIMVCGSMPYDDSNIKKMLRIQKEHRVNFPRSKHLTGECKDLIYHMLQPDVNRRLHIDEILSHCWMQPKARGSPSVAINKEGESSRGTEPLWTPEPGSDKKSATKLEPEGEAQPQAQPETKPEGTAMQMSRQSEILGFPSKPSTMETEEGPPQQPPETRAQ
The target in test [8] is T1, ROCK1. Conditions: read-out: ROCK1 Average Ki; 1 μM ATP.
The mark [9] stands for this setting: 1 μM ATP, read-out: MRCK-a Average Ki.
[10] abbreviates: MDA-MB-231 cells, doxycycline inducible kinase domain, 60 minutes, pMLC (T18/S19), read-out: Cellular assay - MRCK-b inhibition MEAN.
The mark [11] stands for this setting: MDA-MB-231 cells, doxycycline inducible kinase domain, 60 minutes, pMLC (T18/S19), read-out: Cellular assay - ROCK1 inhibition MEAN.
The mark [12] stands for this setting: 1 μM ATP, read-out: ROCK2 Average Ki.
Setting [13] is: 1 μM ATP, read-out: MRCK-B Average Ki.

As usually defined, the Ki is a measure of affinity in units of concentration, obtained from inhibition or displacement.

Where two headings read alike, the source gives them in different places.

ROCK2, sequence (O75116 whole entry): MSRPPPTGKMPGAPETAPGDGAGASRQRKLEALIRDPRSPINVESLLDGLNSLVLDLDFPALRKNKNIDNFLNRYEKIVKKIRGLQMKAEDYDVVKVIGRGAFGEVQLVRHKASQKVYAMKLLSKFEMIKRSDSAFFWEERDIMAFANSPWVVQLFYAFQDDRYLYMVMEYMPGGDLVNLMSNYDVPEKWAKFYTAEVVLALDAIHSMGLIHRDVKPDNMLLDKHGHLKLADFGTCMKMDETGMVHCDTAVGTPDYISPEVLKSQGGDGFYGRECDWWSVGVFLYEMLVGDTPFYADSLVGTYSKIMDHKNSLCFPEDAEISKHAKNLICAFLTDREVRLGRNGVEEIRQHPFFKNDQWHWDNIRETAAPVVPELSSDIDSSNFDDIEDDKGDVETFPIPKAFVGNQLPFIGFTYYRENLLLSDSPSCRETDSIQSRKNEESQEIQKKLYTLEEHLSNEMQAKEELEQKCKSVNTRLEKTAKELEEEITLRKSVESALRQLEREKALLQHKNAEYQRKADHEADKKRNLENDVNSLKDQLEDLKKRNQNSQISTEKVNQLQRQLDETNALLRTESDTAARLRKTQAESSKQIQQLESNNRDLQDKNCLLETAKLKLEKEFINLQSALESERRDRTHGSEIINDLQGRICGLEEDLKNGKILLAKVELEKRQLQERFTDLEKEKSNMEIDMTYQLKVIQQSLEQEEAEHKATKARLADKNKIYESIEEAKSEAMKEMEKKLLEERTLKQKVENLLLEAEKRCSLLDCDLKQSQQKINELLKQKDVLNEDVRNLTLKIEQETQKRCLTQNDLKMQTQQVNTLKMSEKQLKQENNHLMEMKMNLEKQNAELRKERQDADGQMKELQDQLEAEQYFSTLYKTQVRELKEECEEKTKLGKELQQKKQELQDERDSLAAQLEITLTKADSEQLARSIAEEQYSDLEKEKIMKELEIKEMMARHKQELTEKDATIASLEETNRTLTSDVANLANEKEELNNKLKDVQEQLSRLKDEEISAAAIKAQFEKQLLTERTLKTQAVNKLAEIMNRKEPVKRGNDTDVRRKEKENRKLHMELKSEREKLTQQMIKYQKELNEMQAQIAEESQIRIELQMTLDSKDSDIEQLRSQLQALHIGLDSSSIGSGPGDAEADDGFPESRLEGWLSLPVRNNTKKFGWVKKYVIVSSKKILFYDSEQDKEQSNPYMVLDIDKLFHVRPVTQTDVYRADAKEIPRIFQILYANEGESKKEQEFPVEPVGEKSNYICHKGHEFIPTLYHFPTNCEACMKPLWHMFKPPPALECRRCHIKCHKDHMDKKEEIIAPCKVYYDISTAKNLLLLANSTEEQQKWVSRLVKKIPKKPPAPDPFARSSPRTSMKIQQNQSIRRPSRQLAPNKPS
T1 sequence (Q13464 2-1354 limits assumed): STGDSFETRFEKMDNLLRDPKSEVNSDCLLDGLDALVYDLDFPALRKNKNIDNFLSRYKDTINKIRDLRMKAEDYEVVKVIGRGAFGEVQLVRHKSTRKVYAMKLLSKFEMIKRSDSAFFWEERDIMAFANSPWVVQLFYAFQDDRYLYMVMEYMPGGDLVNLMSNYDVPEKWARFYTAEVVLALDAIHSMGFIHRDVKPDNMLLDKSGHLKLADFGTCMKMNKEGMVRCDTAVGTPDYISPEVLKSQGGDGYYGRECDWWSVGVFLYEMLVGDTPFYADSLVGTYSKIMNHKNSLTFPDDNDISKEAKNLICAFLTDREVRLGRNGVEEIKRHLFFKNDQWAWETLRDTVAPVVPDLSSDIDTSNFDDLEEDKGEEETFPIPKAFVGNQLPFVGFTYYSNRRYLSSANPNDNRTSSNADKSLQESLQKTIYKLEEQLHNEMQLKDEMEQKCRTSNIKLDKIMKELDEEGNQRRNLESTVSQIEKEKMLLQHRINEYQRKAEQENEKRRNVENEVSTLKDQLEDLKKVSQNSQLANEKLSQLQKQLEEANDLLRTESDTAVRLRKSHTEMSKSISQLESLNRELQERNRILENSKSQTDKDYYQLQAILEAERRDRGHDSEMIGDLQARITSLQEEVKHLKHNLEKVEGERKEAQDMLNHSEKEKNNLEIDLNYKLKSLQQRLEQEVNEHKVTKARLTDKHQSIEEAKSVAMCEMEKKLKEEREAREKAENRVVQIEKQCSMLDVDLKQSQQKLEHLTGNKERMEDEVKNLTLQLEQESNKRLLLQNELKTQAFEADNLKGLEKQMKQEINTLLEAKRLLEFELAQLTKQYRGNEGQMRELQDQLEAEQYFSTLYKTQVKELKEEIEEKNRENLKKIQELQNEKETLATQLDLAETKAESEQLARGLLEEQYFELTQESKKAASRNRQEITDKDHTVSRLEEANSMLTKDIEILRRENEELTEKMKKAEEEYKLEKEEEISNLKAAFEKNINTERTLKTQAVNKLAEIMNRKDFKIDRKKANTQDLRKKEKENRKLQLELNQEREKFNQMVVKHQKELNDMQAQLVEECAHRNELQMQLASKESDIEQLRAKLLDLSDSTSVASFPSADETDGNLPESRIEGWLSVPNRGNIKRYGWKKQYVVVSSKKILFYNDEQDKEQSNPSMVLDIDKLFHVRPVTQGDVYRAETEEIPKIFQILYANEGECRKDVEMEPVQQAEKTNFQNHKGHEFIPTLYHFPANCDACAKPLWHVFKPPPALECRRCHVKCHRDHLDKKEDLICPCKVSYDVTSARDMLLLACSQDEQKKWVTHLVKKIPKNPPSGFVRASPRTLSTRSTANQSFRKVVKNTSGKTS
kinase targets listed in tables 3 and 4 (Homo sapiens, UniProt Q13464), sequence (Q13464 2-1354 limits assumed): as above
Description for ROCK2: MRCKα, MRCKβ, ROCK1 and ROCK2 assays were performed using an IMAP fluorescence polarization assay format (Molecular Devices Inc.). 8-12 nM of each kinase (Life Technologies) was incubated for 60 min at room temperature with 100 nM FAM-S6-ribosomal protein derived peptide (synthesized by Alta Biosciences, University of Birmingham UK) in the presence of 1 μM ATP and 0.5 mM MgCl2 in 20 mM Tris buffer (pH 7.4) containing 0.01% Tween-20 and 1 mM DTT (MRCKα and β); or 1 μM ATP, 10 mM MgCl2 in 20 mM Tris buffer (pH 7.5) containing 0.25 mM EGTA 0.01% Triton X-100 and 1 mM DTT (ROCK1 and ROCK2). Typically, dose response analyses were performed over concentration ranges from 0.005-100 μM. Reactions were stopped by adding 2 assay volumes of 0.25% (v/v) IMAP binding reagent in 1×IMAP binding buffer A (Molecular Devices). After 30 min incubation to allow binding reagent to bind phosphorylated peptide, fluorescence polarization was measured on a Tecan Saphire^2 plate reader at excitation (470 nm) and emission (530 nm) wavelengths.

`c1cc(N2CCC[C@@]3(CCCCN3)C2)c2c(-c3ncsn3)c[nH]c2n1` [Example E116, 3-[4-[(6S)-1,8-diazaspiro[5.5]undecan-8-yl]-1H-pyrrolo[2,3-b]pyridin-3-yl]-1,2,4-thiadiazole]: the inhibition constant Ki on ROCK1 [1] is 85.1 nM; on MRCKα (setting [9]) it was 0.0122 nM; at ROCK2 (setting [12]) it was 39.4 nM; on MRCKβ [4] (setting [13]) it was 0.0124 nM. For the same compound, the IC50 is 142 nM on MRCKβ [2] (setting [10]) and over 30000 nM at ROCK1 [3] (setting [11]).
As to `c1cc(N2CCC[C@@]3(CCCCN3)C2)c2c(-c3ccsn3)c[nH]c2n1` [Example E120, 3-[4-[(6S)-1,8-diazaspiro[5.5]undecan-8-yl]-1H-pyrrolo[2,3-b]pyridin-3-yl]isothiazole], the Ki on ROCK1 [1] came to 23.8 nM; on MRCKα (setting [9]) it was 0.0049 nM; at ROCK2 (setting [12]), 4.73 nM; at MRCKβ [4] (setting [13]), 0.0147 nM. The IC50 at MRCKβ [2] (setting [10]) is 13.3 nM; on ROCK1 [3] (setting [11]), 15400 nM.
`c1ncc(-c2c[nH]c3nccc(N4CCC[C@@]5(CCCCN5)C4)c23)cn1` [Example E122, (6S)-8-(3-pyrimidin-5-yl-1H-pyrrolo[2,3-b]pyridin-4-yl)-1,8-diazaspiro[5.5]undecane]: the Ki was found to be 196 nM on ROCK1 [1], 0.0284 nM on MRCKα (setting [9]), 77.7 nM at ROCK2 (setting [12]) and 0.585 nM at MRCKβ [4] (setting [13]). Besides, the IC50 on MRCKβ [2] (setting [10]) is 101 nM; at ROCK1 [3] (setting [11]), over 30000 nM.
For `Cc1cnc(-c2c[nH]c3nccc(N4CC[C@@]5(CCCCN5)C4)c23)s1` [Example E131, 2-[4-[(5S)-2,6-diazaspiro[4.5]decan-2-yl]-1H-pyrrolo[2,3-b]pyridin-3-yl]-5-methyl-thiazole], the inhibitory constant (Ki) is 107 nM on ROCK1 [1], 0.021 nM on MRCKα (setting [9]), 24.8 nM on ROCK2 (setting [12]) and 0.0601 nM on MRCKβ [4] (setting [13]). Further, the IC50 at MRCKβ [2] (setting [10]) was 318 nM; at ROCK1 [3] (setting [11]), over 30000 nM.
For the compound `c1csc(-c2c[nH]c3nccc(N4CC[C@@]5(CCCN5)C4)c23)n1` [Example E134, 2-[4-[(5S)-1,7-diazaspiro[4.4]nonan-7-yl]-1H-pyrrolo[2,3-b]pyridin-3-yl]thiazole], the inhibition constant Ki on ROCK1 [1] was 111 nM; at MRCKα it was 0.19 nM; at ROCK2 it was 30 nM; on MRCKβ [4], 0.303 nM. For the same compound, the values for the IC50 at MRCKβ [2] and on ROCK1 [3] were 787 nM and over 30000 nM, respectively.
Turning to `c1cc(N2CCC3(CCCN3)C2)c2c(-c3ccsn3)c[nH]c2n1` (stereo not shown) [Example E136, 3-[4-(1,7-diazaspiro[4.4]nonan-7-yl)-1H-pyrrolo[2,3-b]pyridin-3-yl]isothiazole], the Ki at ROCK1 [1] was determined as 70.7 nM; at MRCKα, 0.207 nM; at ROCK2, 14.2 nM; on MRCKβ [4], 0.12 nM. Besides, the IC50 is 457 nM against MRCKβ [2] and over 30000 nM on ROCK1 [3].
Turning to `Cc1csnc1-c1c[nH]c2nccc(N3CCCC4(CCCCN4)C3)c12` (stereo not shown) [Example E142, 3-[4-(1,8-diazaspiro[5.5]undecan-8-yl)-1H-pyrrolo[2,3-b]pyridin-3-yl]-4-methyl-isothiazole], the Ki was determined as 104 nM on ROCK1 [1], 0.216 nM on MRCKα (setting [9]), 33600 nM on ROCK2 (setting [12]) and 0.203 nM at MRCKβ [4] (setting [13]). For the same compound, the IC50 on MRCKβ [2] (setting [10]) was 1210 nM; on ROCK1 [3] (setting [11]), over 30000 nM.
For the compound `Cc1cnc(-c2c[nH]c3nccc(N4CCC[C@@]5(CCCCN5)C4)c23)s1` [Example E146, 2-[4-[(6S)-1,8-diazaspiro[5.5]undecan-8-yl]-1H-pyrrolo[2,3-b]pyridin-3-yl]-5-methyl-thiazole], the Ki came to 203 nM at ROCK1 [1], 0.0493 nM on MRCKα (setting [9]), 100 nM at ROCK2 (setting [12]) and 0.0539 nM at MRCKβ [4] (setting [13]). Moreover, the IC50 was 150 nM on MRCKβ [2] (setting [10]) and over 30000 nM on ROCK1 [3] (setting [11]).
As for `c1csc(-c2c[nH]c3nccc(N4CCC[C@@]5(CCCCN5)C4)c23)n1` [Example E150, 2-[4-[(6S)-1,8-diazaspiro[5.5]undecan-8-yl]-1H-pyrrolo[2,3-b]pyridin-3-yl]thiazole], the Ki is 56.9 nM at ROCK1 [1]; 0.0332 nM at MRCKα (setting [9]); 251 nM in test [5]; 1.15 nM in test [6]; 2070 nM in [7]; 21.7 nM on ROCK2 (setting [12]). For the same compound, at MRCKβ [4] (setting [13]), the Ki turned out to be 0.0246 nM. The IC50 in test [5] is 406 nM; in test [6], 6.9 nM; in test [7], 4360 nM; at MRCKβ [2] (setting [10]), 42.2 nM; on ROCK1 [3] (setting [11]), over 30000 nM.
With `c1cc(-c2c[nH]c3nccc(N4CCC[C@@]5(CCCCN5)C4)c23)cnn1` [Example E174, (6S)-8-(3-pyridazin-4-yl-1H-pyrrolo[2,3-b]pyridin-4-yl)-1,8-diazaspiro[5.5]undecane], the figures for the Ki on ROCK1 [1] and at MRCKβ [4] (setting [13]) were 405 nM and 0.0256 nM, respectively. In addition, the IC50 at MRCKβ [2] (setting [10]) was found to be 50.9 nM; on ROCK1 [3] (setting [11]) it was 2250 nM.
For `CCN1CCCC[C@@]12CCCN(c1ccnc3[nH]cc(-c4ccncn4)c13)C2` [Example E207, (6S)-1-ethyl-8-(3-pyrimidin-4-yl-1H-pyrrolo[2,3-b]pyridin-4-yl)-1,8-diazaspiro[5.5]undecane], the Ki worked out at 0.0275 nM at MRCKα (setting [9]), 20 nM at ROCK1 [8], 8.34 nM on ROCK2 (setting [12]) and 0.0395 nM at MRCKβ [4] (setting [13]). The IC50 at MRCKβ [2] (setting [10]) was 170 nM; on ROCK1 [3] (setting [11]) it was over 30000 nM.
In the case of `CCN1CCCCC12CCCN(c1ccnc3[nH]cc(-c4nccs4)c13)C2` (stereo not shown) [Example E209, 2-[4-(1-ethyl-1,8-diazaspiro[5.5]undecan-8-yl)-1H-pyrrolo[2,3-b]pyridin-3-yl]thiazole], the Ki at ROCK1 [1] came to 127 nM; at MRCKα (setting [9]), 0.101 nM; at ROCK2 (setting [12]), 29.9 nM; on MRCKβ [4] (setting [13]) it was 0.0389 nM. In addition, the IC50 on MRCKβ [2] (setting [10]) is 109 nM; at ROCK1 [3] (setting [11]) it was over 30000 nM.
For `CCN1CCCCC12CCCN(c1ccnc3[nH]cc(-c4ncc(C)s4)c13)C2` (stereo not shown) [Example E210, 2-[4-(1-ethyl-1,8-diazaspiro[5.5]undecan-8-yl)-1H-pyrrolo[2,3-b]pyridin-3-yl]-5-methyl-thiazole], the inhibition constant (Ki) came out at 50200 nM at ROCK1 [1], 0.127 nM on MRCKα (setting [9]), 152 nM at ROCK2 (setting [12]) and 0.0634 nM at MRCKβ [4] (setting [13]). Further, the IC50 at MRCKβ [2] (setting [10]) is 701 nM; at ROCK1 [3] (setting [11]) it was over 30000 nM.
With `CCN1CCCCC12CCCN(c1ccnc3[nH]cc(C#N)c13)C2` (stereo not shown) [Example E211, 4-(1-ethyl-1,8-diazaspiro[5.5]undecan-8-yl)-1H-pyrrolo[2,3-b]pyridine-3-carbonitrile], the Ki is 0.631 nM at MRCKα (setting [9]), 245 nM on ROCK1 [8], 34.3 nM at ROCK2 (setting [12]) and 0.351 nM at MRCKβ [4] (setting [13]). Further, the values for the IC50 against MRCKβ [2] and at ROCK1 [3] were 952 nM and over 30000 nM, respectively.
In the case of `c1csc(-c2c[nH]c3nccc(O[C@@H]4CCCNC4)c23)n1` [Example E212, 2-[4-[[(3R)-3-piperidyl]oxy]-1H-pyrrolo[2,3-b]pyridin-3-yl]thiazole], the Ki on ROCK1 [1] is 29.9 nM; at MRCKα (setting [9]) it was 0.185 nM; at ROCK2 (setting [12]), 7.57 nM; on MRCKβ [4] (setting [13]), 0.184 nM. Further, the IC50 on MRCKβ [2] (setting [10]) is 426 nM; on ROCK1 [3] (setting [11]), 14400 nM.
With `c1cc(N2CCCC3(CCCCN3)C2)c2c(-c3ncsn3)c[nH]c2n1` (stereo not shown) [Example E236, 3-[4-[1,8-diazaspiro[5.5]undecan-8-yl]-1H-pyrrolo[2,3-b]pyridin-3-yl]-1,2,4-thiadiazole], the Ki came to 390 nM on ROCK1 [1], 0.0945 nM at MRCKα (setting [9]), 105 nM on ROCK2 (setting [12]) and 0.0898 nM on MRCKβ [4] (setting [13]). Also, the IC50 on MRCKβ [2] (setting [10]) is 145 nM; on ROCK1 [3] (setting [11]) it was over 30000 nM.
